Results published in ChEMBL document CHEMBL3817727, “Fluorinated thiazolidinols cause cell death in A549 lung cancer cells via PI3K/AKT/mTOR and MAPK/ERK signalling pathways” (Medchemcomm, 2016).
Calls of active or inactive are those of the source. The calls are words filed in the database; no cut-off is given here.

Experiments:
A549 [1] = test: Cytotoxicity against human A549 cells assessed as reduction in cell viability after 24 hrs by MTT assay; type: functional, cell-based; settings: A549, 24 h
MDA-MB-231 = test: Cytotoxicity against human MDA-MB-231 cells assessed as reduction in cell viability after 24 hrs by MTT assay; type: functional, cell-based; settings: MDA-MB-231, 24 h
HeLa = test: Cytotoxicity against human HeLa cells assessed as reduction in cell viability after 24 hrs by MTT assay; type: functional, cell-based
MCF7 = test: Cytotoxicity against human MCF7 cells assessed as reduction in cell viability after 24 hrs by MTT assay; type: functional, cell-based; settings: MCF7, 24 h
A549 [2] = test: Cell cycle arrest in human A549 cells assessed as accumulation at subG1 phase at 4 uM after 24 hrs by propidium iodide staining based flow cytometry (reference value: 1.11%); type: functional
A549 [3] = test: Cell cycle arrest in human A549 cells assessed as accumulation at G0/G1 phase at 4 uM after 24 hrs by propidium iodide staining based flow cytometry (reference value: 69.5%); type: functional
A549 [4] = test: Cell cycle arrest in human A549 cells assessed as accumulation at S phase at 4 uM after 24 hrs by propidium iodide staining based flow cytometry (reference value: 8.85%); type: functional
A549 [5] = test: Cell cycle arrest in human A549 cells assessed as accumulation at G2/M phase at 4 uM after 24 hrs by propidium iodide staining based flow cytometry (reference value: 21.58%); type: functional
A549 [6] = test: Induction of cell death in human A549 cells assessed as LC3-mediated cytoplasmic vacuolation by Hoechst staining based assay; type: functional
A549 [7] = test: Induction of cell death in human A549 cells assessed as increase in LC3-2 expression after 24 hrs by Western blot analysis; type: functional, cell-based
A549 [8] = test: Inhibition of PI3K/Akt/mTOR signalling in human A549 cells assessed as downregulation of Akt expression at 4 uM after 24 hrs by Western blot analysis; type: cell-based
A549 [9] = test: Induction of autophagy in human A549 cells assessed as increase in Atg7 expression after 24 hrs by Western blot analysis; type: functional, cell-based
A549 [10] = test: Inhibition of PI3K/Akt/mTOR signalling in human A549 cells assessed as downregulation of PI3K expression at 4 uM after 24 hrs by Western blot analysis; type: cell-based
A549 [11] = test: Inhibition of PI3K/Akt/mTOR signalling in human A549 cells assessed as reduction in Akt phosphorylation at Ser-473 residue at 4 uM after 24 hrs by Western blot analysis; type: cell-based
A549 [12] = test: Inhibition of PI3K/Akt/mTOR signalling in human A549 cells assessed as downregulation of mTOR expression at 4 uM after 24 hrs by Western blot analysis; type: cell-based
A549 [13] = test: Inhibition of RAS/MEK/ERK signalling in human A549 cells assessed as decrease in phosphorylated MEK1/2 level at 4 uM after 24 hrs by Western blot analysis; type: cell-based
A549 [14] = test: Inhibition of RAS/MEK/ERK signalling in human A549 cells assessed as decrease in phosphorylated ERK1/2 level at 4 uM after 24 hrs by Western blot analysis; type: cell-based
A549 [15] = test: Upregulation of PTEN expression in human A549 cells at 4 uM after 24 hrs by Cy-3 staining based immunoblot analysis; type: functional, cell-based
A549 [16] = test: Cell cycle arrest in human A549 cells assessed as accumulation at subG1 phase at 10 uM after 24 hrs by propidium iodide staining based flow cytometry (reference value: 1.11%); type: functional
A549 [17] = test: Cell cycle arrest in human A549 cells assessed as accumulation at G0/G1 phase at 10 uM after 24 hrs by propidium iodide staining based flow cytometry (reference value: 69.5%); type: functional
A549 [18] = test: Cell cycle arrest in human A549 cells assessed as accumulation at S phase at 10 uM after 24 hrs by propidium iodide staining based flow cytometry (reference value: 8.85%); type: functional
A549 [19] = test: Cell cycle arrest in human A549 cells assessed as accumulation at G2/M phase at 10 uM after 24 hrs by propidium iodide staining based flow cytometry (reference value: 21.58%); type: functional

Row | Structure (SMILES) | IC50 (A549 [1]) [µM] | IC50 (MDA-MB-231) [µM] | IC50 (HeLa) [µM] | IC50 (MCF7) [µM] | other results
1 | OC1(C(F)(F)F)CS/C(=N\c2ccc(Cl)c(C(F)(F)F)c2)N1Cc1cccs1 (centres undefined) | 3.57 | 4.48 | 6.41 | 11.4 | Activity (A549 [2]): 3.57%; Activity (A549 [3]): 75.3%; Activity (A549 [4]): 5.81%; Activity (A549 [5]): 16.15%; Activity (A549 [6]): Active; Activity (A549 [7]): Active; inhibition (A549 [8]): Active; Activity (A549 [9]): Active; inhibition (A549 [10]): Active; inhibition (A549 [11]): Active; inhibition (A549 [12]): Active; inhibition (A549 [13]): Active; inhibition (A549 [14]): Active; Activity (A549 [15]): Active
2 | OC1(C(F)(F)F)CS/C(=N\c2ccc(Cl)c(C(F)(F)F)c2)N1CCN1CCOCC1 (centres undefined) | 4.15 | 5.92 | 6.24 | 18.2 | Activity (A549 [2]): 6.04%; Activity (A549 [3]): 81.78%; Activity (A549 [4]): 1.89%; Activity (A549 [5]): 10.63%; Activity (A549 [7]): Active; inhibition (A549 [8]): Active; Activity (A549 [9]): Active; inhibition (A549 [10]): Active; inhibition (A549 [11]): Active; inhibition (A549 [12]): Active; inhibition (A549 [13]): Active; inhibition (A549 [14]): Active; Activity (A549 [15]): Active
3 | OC1(C(F)(F)F)CS/C(=N\c2ccc(Cl)c(C(F)(F)F)c2)N1Cc1ccco1 (centres undefined) | 3.82 | 5.12 | 5.84 | 15.1 | Activity (A549 [2]): 4.99%; Activity (A549 [3]): 79.77%; Activity (A549 [4]): 4.11%; Activity (A549 [5]): 11.8%; Activity (A549 [6]): Active; Activity (A549 [7]): Active; inhibition (A549 [8]): Active; Activity (A549 [9]): Active; inhibition (A549 [10]): Active; inhibition (A549 [11]): Active; inhibition (A549 [12]): Active; inhibition (A549 [13]): Active; inhibition (A549 [14]): Active; Activity (A549 [15]): Active
4 | COc1ccc(N2/C(=N/c3ccc(F)cc3)SCC2(O)C(F)(F)F)cc1 (centres undefined) | 4.58 | 6.64 | 6.98 | 28.7 | –
5 | OC1(C(F)(F)F)CS/C(=N\c2ccccc2)N1CCN1CCOCC1 (centres undefined) | 21.2 | 23.8 | 26.1 | 37.4 | –
6 | OC1(C(F)(F)F)CS/C(=N\c2ccccc2)N1C1CCCCC1 (centres undefined) | 13.8 | 22.5 | 28.2 | 30.1 | –
7 | CCCN1/C(=N/c2ccccc2)SCC1(O)C(F)(F)F (centres undefined) | 14.3 | 18.7 | 24.4 | 22.5 | –
8 | OC1(C(F)(F)F)CS/C(=N\c2ccc(C(F)(F)F)cc2)N1Cc1ccco1 (centres undefined) | 13.1 | 21.7 | 19.7 | 25.1 | –
9 | OC1(C(F)(F)F)CS/C(=N\c2ccc(Cl)c(C(F)(F)F)c2)N1CCc1ccccn1 (centres undefined) | 6.02 | 19.6 | 7.12 | 11.3 | –
10 | OC1(C(F)(F)F)CS/C(=N\c2ccccc2)N1CCc1ccccn1 (centres undefined) | 20.1 | 21.5 | 28.5 | 25.9 | –
11 | OC1(C(F)(F)F)CS/C(=N\c2ccccc2)N1Cc1ccco1 (centres undefined) | 8.26 | 21.6 | 24.8 | 29.4 | –
12 | COc1ccc(N2/C(=N/c3ccc(C(F)(F)F)cc3)SCC2(O)C(F)(F)F)cc1 (centres undefined) | 15.2 | 20.6 | 16.8 | 29.2 | –
13 | OC1(C(F)(F)F)CS/C(=N\c2ccccc2)N1C1CC1 (centres undefined) | 15.1 | 22.7 | 24.6 | 29.2 | –
14 | OC1(C(F)(F)F)CS/C(=N\c2ccccc2)N1Cc1cccs1 (centres undefined) | 11.1 | 23.1 | 24.8 | 33.8 | –
15 | OC1(C(F)(F)F)CS/C(=N\c2ccc(C(F)(F)F)cc2)N1CCc1ccccn1 (centres undefined) | 12.8 | 20.9 | 21 | 25.3 | –
16 | CC(C)(C)N1/C(=N/c2ccc(Cl)c(C(F)(F)F)c2)SCC1(O)C(F)(F)F (centres undefined) | 3.26 | 4.03 | 5.54 | 32.3 | Activity (A549 [2]): 8.63%; Activity (A549 [3]): 82.31%; Activity (A549 [4]): 3.05%; Activity (A549 [5]): 6.79%; Activity (A549 [7]): Active; inhibition (A549 [8]): Active; Activity (A549 [9]): Active; inhibition (A549 [10]): Active; inhibition (A549 [11]): Active; inhibition (A549 [12]): Active; inhibition (A549 [13]): Active; inhibition (A549 [14]): Active; Activity (A549 [15]): Active
17 | OC1(C(F)(F)F)CS/C(=N\c2ccc(F)cc2)N1c1ccc(F)cc1 (centres undefined) | 14.8 | 21.3 | 30.7 | 34.1 | –
18 | O=c1cc(N2CCOCC2)oc2c(-c3ccccc3)cccc12 [LY-294002] | 17.7 | 9.7 | 20.5 | 29.1 | Activity (A549 [16]): 5.15%; Activity (A549 [17]): 82.95%; Activity (A549 [18]): 3.24%; Activity (A549 [19]): 9.24%
19 | OC1(C(F)(F)F)CS/C(=N\c2cccc(C(F)(F)F)c2)N1c1cccc(C(F)(F)F)c1 (centres undefined) | 2.84 | 3.32 | 3.57 | 6.69 | Activity (A549 [2]): 3.81%; Activity (A549 [3]): 86.61%; Activity (A549 [4]): 1.71%; Activity (A549 [5]): 8.15%; Activity (A549 [6]): Active; Activity (A549 [7]): Active; inhibition (A549 [8]): Active; Activity (A549 [9]): Active; inhibition (A549 [10]): Active; inhibition (A549 [11]): Active; inhibition (A549 [12]): Active; inhibition (A549 [13]): Active; inhibition (A549 [14]): Active; Activity (A549 [15]): Active
20 | OC1(C(F)(F)F)CS/C(=N\c2ccccc2)N1c1ccccc1 (centres undefined) | 18.6 | 20.9 | 29.4 | 25 | –
21 | OC1(C(F)(F)F)CS/C(=N\c2ccc(F)c(Cl)c2)N1c1ccccc1 (centres undefined) | 16.8 | 19 | 19.9 | 22.9 | –
22 | OC1(C(F)(F)F)CS/C(=N\c2ccc(F)cc2)N1c1ccccc1 (centres undefined) | 17.1 | 19.6 | 32.4 | 25.8 | –
23 | OC1(C(F)(F)F)CS/C(=N\c2ccccc2)N1CCc1c[nH]c2ccccc12 (centres undefined) | 10.6 | 20.6 | 27.7 | 26.6 | –
